Test results published in ChEMBL document CHEMBL1201862, “PubChem BioAssay data set” (2004).
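Values below derive from 48-hour exposures of cells grown in 96-well plates, with endpoints linearly interpolated between the two concentrations bracketing the appropriate inhibition level. GI50 marks 50% less growth.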 Active and inactive are the calls of the source. Rule as the data show it: active = GI50 up to about 1.1 µM and inactive = higher.

Tests used:
Assay in all cases: DTP human tumour cell line panel, 48 h
HCT-15 = system: HCT-15
PC-3 = system: PC-3
MCF7 = system: MCF7
MDA-MB-435 = system: MDA-MB-435
NCI/ADR-RES = system: NCI/ADR-RES
SR = system: SR
MDA-MB-231 = system: MDA-MB-231
EKVX = system: EKVX
NCI-H522 = system: NCI-H522
SF-539 = system: SF-539
HOP-62 = system: HOP-62
T47D = system: T47D
MDA-N = system: MDA-N
786-0 = system: 786-0
SK-MEL-28 = system: SK-MEL-28
DLD-1 = system: DLD-1
RPMI-8226 = system: RPMI-8226
KM-20L2 = system: KM-20L2
LXFL 529 = system: LXFL 529
DMS-114 = system: DMS-114

Row | Compound | GI50 (HCT-15) [µM] | GI50 (PC-3) | GI50 (MCF7) | GI50 (MDA-MB-435) | GI50 (NCI/ADR-RES) | GI50 (SR) | GI50 (MDA-MB-231) | GI50 (EKVX) | GI50 (NCI-H522) | GI50 (SF-539) | GI50 (HOP-62) | GI50 (T47D) | GI50 (MDA-N) | GI50 (786-0) | GI50 (SK-MEL-28) | GI50 (DLD-1) | GI50 (RPMI-8226) | GI50 (KM-20L2) | GI50 (LXFL 529) | GI50 (DMS-114)
1 | O=C(CCc1ccc(O)cc1)NCCc1cccc(O)c1 | > 50 | > 50 µM (inactive) | > 50 µM (inactive) | > 50 µM (inactive) | > 50 µM (inactive) | > 50 µM (inactive) | > 50 µM (inactive) | > 50 µM (inactive) | 20.2 µM (inactive) | > 50 µM (inactive) | > 50 µM (inactive) | > 50 µM (inactive) | > 50 µM (inactive) | > 50 µM (inactive) | > 50 µM (inactive) |  |  |  |  | 
2 | Cc1c2ccncc2c(C)c2c1[nH]c1ccc(OCCN(C)C)cc12 | 0.123 |  | 0.164 µM (active) |  | 0.0916 µM (active) |  |  | 0.526 µM (active) | 0.391 µM (active) | 0.832 µM (active) | 0.671 µM (active) |  |  |  | 0.577 µM (active) | 0.0893 µM (active) | 0.0638 µM (active) | 0.113 µM (active) |  | 
3 | CCOC(=O)c1c(Cl)nc2ccccc2c1N=[N+]=[N-] | 18.6 | 32.2 µM (inactive) |  | 21.1 µM (inactive) |  | 32.7 µM (inactive) | 16.2 µM (inactive) | 22.4 µM (inactive) | 16.7 µM (inactive) | 18.6 µM (inactive) | 49.3 µM (inactive) | 22.7 µM (inactive) | 21 µM (inactive) |  | 52.4 µM (inactive) |  | 43.5 µM (inactive) |  |  | 
4 | CC(C)=CCC/C(C)=C/CC/C(C)=C/C(O)c1ccccc1 (configuration not stated) | 18.8 |  |  |  |  | 20.7 µM (inactive) |  | 20.1 µM (inactive) | > 10 µM (inactive) |  | 19.1 µM (inactive) |  |  |  |  | 18.5 µM (inactive) | 18.7 µM (inactive) | 21.3 µM (inactive) | 17.8 µM (inactive) | 18.3 µM (inactive)
5 | O=C(O)/C(O)=C1/C=C(c2ccccc2)c2ccccc21 | 22.2 |  |  |  |  | 18.7 µM (inactive) |  |  | 16.9 µM (inactive) | 29.9 µM (inactive) | 25.4 µM (inactive) |  |  | 28.4 µM (inactive) |  | 30.1 µM (inactive) | 19.4 µM (inactive) | 33.7 µM (inactive) | 27.5 µM (inactive) | 18.7 µM (inactive)
6 | O=C(O)C(SC(=S)c1ccc(C(=S)SC(C(=O)O)c2ccccc2)cc1)c1ccccc1 (configuration not stated) | 42.2 |  |  |  |  | > 100 µM (inactive) |  |  |  | > 100 µM (inactive) | > 100 µM (inactive) |  |  | 40.9 µM (inactive) | 99.3 µM (inactive) | > 100 µM (inactive) | 42.8 µM (inactive) |  | 50.8 µM (inactive) | 35 µM (inactive)
7 | O=C(Nc1nccs1)c1c(O)nc2sccn2c1=O | > 10 | > 10 µM (inactive) | > 10 µM (inactive) | > 10 µM (inactive) | > 10 µM (inactive) | > 10 µM (inactive) | > 10 µM (inactive) | > 10 µM (inactive) | > 10 µM (inactive) | > 10 µM (inactive) | > 10 µM (inactive) | > 10 µM (inactive) | > 10 µM (inactive) |  | > 10 µM (inactive) |  | > 10 µM (inactive) |  |  | 
8 | O=C(O)C1CC2C=CCC(C2)C1 (configuration not stated) | > 100 |  |  |  |  | > 100 µM (inactive) |  | > 100 µM (inactive) | > 100 µM (inactive) |  | > 100 µM (inactive) |  |  | > 100 µM (inactive) | > 100 µM (inactive) | > 100 µM (inactive) | > 100 µM (inactive) | > 100 µM (inactive) | > 100 µM (inactive) | > 100 µM (inactive)
9 | CC1SC2=NC3=C(c4ccccc4C3=O)C(c3ccccc3Cl)N2C1=O (configuration not stated) | > 100 |  |  |  |  |  |  | > 100 µM (inactive) | 30.8 µM (inactive) | > 100 µM (inactive) | > 100 µM (inactive) |  |  | > 100 µM (inactive) | > 100 µM (inactive) | > 100 µM (inactive) | 58.5 µM (inactive) | > 100 µM (inactive) | > 100 µM (inactive) | > 100 µM (inactive)
10 | C[Si](C)(N[Si](C)(C)OCCc1ccccc1)OCCc1ccccc1 | > 100 | > 100 µM (inactive) | > 100 µM (inactive) | > 100 µM (inactive) | > 100 µM (inactive) |  |  | > 100 µM (inactive) |  |  | > 100 µM (inactive) | > 100 µM (inactive) | > 100 µM (inactive) | > 100 µM (inactive) | > 100 µM (inactive) |  | > 100 µM (inactive) |  |  | 
11 | COc1ccc(Nc2cnc3cc(N)ccc3n2)cc1OC | > 100 |  |  |  |  | 33.7 µM (inactive) |  | > 100 µM (inactive) |  |  | 61.1 µM (inactive) |  |  |  | > 100 µM (inactive) | > 100 µM (inactive) | 23.9 µM (inactive) | 63.1 µM (inactive) | 13.2 µM (inactive) | 47 µM (inactive)
12 | COc1ccc(-c2cc(N3CCN(c4ccccc4)CC3)c(C#N)c(=O)o2)cc1 | 65.2 |  |  |  |  | > 100 µM (inactive) |  | 23.8 µM (inactive) |  | 11.3 µM (inactive) |  |  |  |  | 15.6 µM (inactive) | 57 µM (inactive) | 62.5 µM (inactive) | > 100 µM (inactive) | 27.3 µM (inactive) | 22.1 µM (inactive)
13 | CC(Cc1ccccc1)NC1=NCCO1 (configuration not stated) | 96.4 | 34.8 µM (inactive) | > 100 µM (inactive) |  |  | 42.8 µM (inactive) | 16.2 µM (inactive) | 54 µM (inactive) | 59.6 µM (inactive) | 14 µM (inactive) | 84.1 µM (inactive) | 35.1 µM (inactive) | 25.9 µM (inactive) |  |  |  | 37.8 µM (inactive) |  |  | 
14 | O=C1CCCC1C(O)(C(F)(F)Cl)C(F)(F)Cl (configuration not stated) | > 10 | > 10 µM (inactive) | > 10 µM (inactive) | > 10 µM (inactive) | > 10 µM (inactive) | > 10 µM (inactive) | > 10 µM (inactive) | > 10 µM (inactive) | > 10 µM (inactive) | > 10 µM (inactive) | > 10 µM (inactive) | > 10 µM (inactive) | > 10 µM (inactive) | > 10 µM (inactive) | > 10 µM (inactive) |  | > 10 µM (inactive) |  |  | 
15 | CC(=O)c1ccc(NC(=O)/C(CC(=O)/C=C/c2ccccc2)=N/NC(N)=S)cc1 | 60.5 | > 100 µM (inactive) | 34.4 µM (inactive) | > 100 µM (inactive) | 50 µM (inactive) | > 100 µM (inactive) | > 100 µM (inactive) | 47.2 µM (inactive) | 33.3 µM (inactive) | > 100 µM (inactive) | > 100 µM (inactive) | 32.6 µM (inactive) | > 100 µM (inactive) | > 100 µM (inactive) | > 100 µM (inactive) |  | 69.3 µM (inactive) |  |  | 
16 | CCN1CCC(O)(c2ccc(O)cc2)C(C(=O)c2ccc(O)cc2)C1 (configuration not stated) | 17.5 | > 10 µM (inactive) | 3.18 µM (inactive) | 17.3 µM (inactive) | 26.3 µM (inactive) | 16.5 µM (inactive) | 16.3 µM (inactive) | 28.2 µM (inactive) |  |  | > 100 µM (inactive) | 8.77 µM (inactive) |  |  | 17 µM (inactive) |  | 3.21 µM (inactive) |  |  | 
17 | CSc1nc2c(nc(N)n2C2OCC(O)C(O)C2O)c(=O)[nH]1 (configuration not stated) |  |  |  |  |  | > 100 µM (inactive) |  | > 100 µM (inactive) | > 100 µM (inactive) | > 100 µM (inactive) | > 100 µM (inactive) |  |  | > 100 µM (inactive) | > 100 µM (inactive) | > 100 µM (inactive) |  | > 100 µM (inactive) | > 100 µM (inactive) | > 100 µM (inactive)
18 | C=C=C(Sc1ccccc1)C(C)(C)OC(C)=O | 20.6 |  |  |  |  | 27.9 µM (inactive) |  |  | 15.6 µM (inactive) | 16.1 µM (inactive) |  |  |  | 16.5 µM (inactive) | 17.1 µM (inactive) | 16.5 µM (inactive) | 30.7 µM (inactive) | 26.3 µM (inactive) | 18.2 µM (inactive) | 
19 | O=C(C1=C(C(=O)c2ccccc2)SC2(S1)C(C(=O)c1ccccc1)=C(C(=O)c1ccccc1)Sc1c2ssc1=O)c1ccccc1 | 64.9 | > 100 µM (inactive) | > 100 µM (inactive) | 70.6 µM (inactive) | > 100 µM (inactive) | 9.51 µM (inactive) | 78.9 µM (inactive) | > 100 µM (inactive) | 26.7 µM (inactive) | 24.4 µM (inactive) | > 100 µM (inactive) | 97.7 µM (inactive) | 41.1 µM (inactive) | 31.1 µM (inactive) | > 100 µM (inactive) |  |  |  |  | 
20 | CCc1ccc2nc(-c3ccc(O)cc3)sc2c1 | 15.1 | 12.6 µM (inactive) | 20.2 µM (inactive) | 19.2 µM (inactive) | 13.5 µM (inactive) |  | 13.2 µM (inactive) |  | 3.86 µM (inactive) | 11.7 µM (inactive) |  |  | 18.5 µM (inactive) |  |  |  | 13.9 µM (inactive) |  |  | 
21 | Cc1cc(C)c2c(O)cc(-c3cccc4ccccc34)nc2n1 | 0.468 | 0.641 µM (active) | 0.719 µM (active) | 0.172 µM (active) | 0.52 µM (active) | 0.342 µM (active) | 2.22 µM (inactive) | 0.975 µM (active) | 0.373 µM (active) | 0.703 µM (active) | 10 µM (inactive) | 24.4 µM (inactive) | 0.218 µM (active) | 0.612 µM (active) | 10.8 µM (inactive) |  | 0.671 µM (active) |  |  | 
22 | Nc1ccc(S(=O)(=O)c2ccc(NCN3C(=O)NC(=O)C(=O)C3=O)cc2)cc1 [ALLANTODAPSONE] | > 100 | > 100 µM (inactive) |  | > 100 µM (inactive) | > 100 µM (inactive) | > 100 µM (inactive) | > 100 µM (inactive) | > 100 µM (inactive) | > 100 µM (inactive) |  | > 100 µM (inactive) | > 100 µM (inactive) | > 100 µM (inactive) | > 100 µM (inactive) | > 100 µM (inactive) |  |  |  |  | 
23 | CC[n+]1c(-c2ccccc2)c2cc(N)ccc2c2ccc(N)cc21 [HOMIDIUM BROMIDE] | 55.5 | 5.06 µM (inactive) | 2 µM (inactive) | 3.5 µM (inactive) | > 100 µM (inactive) |  | 8.55 µM (inactive) |  |  | 1.53 µM (inactive) |  | 1.93 µM (inactive) | 4.2 µM (inactive) |  | 2.05 µM (inactive) |  |  |  |  | 
